From US8658604B2, “Template-fixed beta-hairpin peptidomimetics with protease inhibitory activity” (Polyphor Ltd, priority 2005, dated 2014)
Read-outs that look alike come from different tables or passages of the source. Where a SMILES comes first, the peptide text is derived from it.

Experiments:
[1] = biological target: Chymotrypsin, from human pancreas (Homo sapiens, UniProt P17538); experiment: Enzymatic assay, chymotrypsin; conditions: at 100 μM
[2] = biological target: T1, Elastase from human neutrophils (Homo sapiens, UniProt P08246); experiment: Enzymatic assay, elastase; conditions: Elastase IC50
T1 sequence (P08246 30-267): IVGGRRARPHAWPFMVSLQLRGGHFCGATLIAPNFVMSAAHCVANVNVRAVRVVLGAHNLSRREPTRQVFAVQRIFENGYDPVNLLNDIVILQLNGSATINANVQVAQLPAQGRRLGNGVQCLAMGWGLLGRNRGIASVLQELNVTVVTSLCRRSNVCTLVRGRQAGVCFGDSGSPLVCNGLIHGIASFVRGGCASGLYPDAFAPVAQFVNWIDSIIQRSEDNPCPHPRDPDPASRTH

[3] = biological target: Urokinase from human urine (Homo sapiens, UniProt P00749); experiment: Enzymatic assay, urokinase
[4] = biological target: Thrombin, from Human Plasma (Homo sapiens, UniProt P00734); experiment: Enzymatic assay, thrombin
[5] = biological target: T2, CathepsinG, from human neutrophils (Homo sapiens, UniProt P08311); experiment: Enzymatic assay, cathepsin G
T2 sequence (P08311 21-244): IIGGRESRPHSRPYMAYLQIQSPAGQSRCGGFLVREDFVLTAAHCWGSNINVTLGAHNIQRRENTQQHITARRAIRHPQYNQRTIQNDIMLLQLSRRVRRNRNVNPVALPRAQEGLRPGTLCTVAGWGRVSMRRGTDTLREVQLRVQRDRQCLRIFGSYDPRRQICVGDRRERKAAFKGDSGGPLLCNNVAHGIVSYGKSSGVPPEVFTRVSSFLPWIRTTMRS

[6] = biological target: Trypsin, from human pancreas (Homo sapiens, UniProt P07477); experiment: Enzymatic assay, trypsin; conditions: at 100 μM
[7] = biological target: Coagulation Factor Xa, from uman plasma (Homo sapiens, UniProt P00742); experiment: Enzymatic assay, coagulation factor Xa
Chain of Coagulation Factor Xa, from uman plasma (P00742 235-488 limits assumed): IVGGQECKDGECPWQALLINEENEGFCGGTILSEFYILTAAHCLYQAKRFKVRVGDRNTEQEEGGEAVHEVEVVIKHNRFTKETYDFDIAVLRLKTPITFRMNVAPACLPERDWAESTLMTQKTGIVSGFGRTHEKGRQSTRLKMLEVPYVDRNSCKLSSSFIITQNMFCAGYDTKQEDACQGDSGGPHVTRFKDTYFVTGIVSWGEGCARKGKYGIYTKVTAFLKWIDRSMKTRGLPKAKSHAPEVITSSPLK
Chain of Coagulation Factor Xa, from uman plasma (P00742 41-179 limits assumed): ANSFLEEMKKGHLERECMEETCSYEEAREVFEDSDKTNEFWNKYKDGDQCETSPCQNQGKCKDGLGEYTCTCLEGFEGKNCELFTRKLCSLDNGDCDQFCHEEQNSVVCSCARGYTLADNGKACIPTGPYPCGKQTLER

[8] = test system: Tryptase, from human lung; experiment: Enzymatic assay, tryptase; conditions: at 100 μM
Chymase, from human skin = biological target: T3, Chymase, from human skin (Homo sapiens, UniProt P23946); experiment: Enzymatic assay, chymase
T3 sequence (P23946 22-247): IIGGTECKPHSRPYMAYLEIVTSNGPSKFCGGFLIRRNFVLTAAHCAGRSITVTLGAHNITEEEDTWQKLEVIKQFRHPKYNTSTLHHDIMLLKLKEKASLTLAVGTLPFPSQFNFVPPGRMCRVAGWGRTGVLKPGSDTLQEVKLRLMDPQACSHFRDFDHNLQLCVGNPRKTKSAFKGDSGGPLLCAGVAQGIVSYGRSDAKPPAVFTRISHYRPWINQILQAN

Chain of Chymotrypsin, from human pancreas (P17538 19-263): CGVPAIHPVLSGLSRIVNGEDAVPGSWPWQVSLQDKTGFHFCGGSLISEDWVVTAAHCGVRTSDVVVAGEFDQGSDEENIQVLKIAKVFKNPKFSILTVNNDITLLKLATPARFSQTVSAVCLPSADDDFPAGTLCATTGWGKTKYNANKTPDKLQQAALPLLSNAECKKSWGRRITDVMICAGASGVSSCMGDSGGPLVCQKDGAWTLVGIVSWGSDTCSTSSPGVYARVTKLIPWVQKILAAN

Cathepsin G at 100 μM % ([5]; at 100 μM (stated in cell instead of IC50))	SMILES	Chymotrypsin at 100 μM % [1]	IC50 [2]	Urokinase at 100 μM % [3]	Thrombin at 100 μM % [4]	IC50 ([5]; Cathepsin G IC50)	Trypsin at 100 μM % [6]	FXa at 100 μM % [7]	Tryptase at 100 μM % [8]	Chymase at 100 μM % (Chymase, from human skin)	Cathepsin G at 100 μM % ([5]; at 100 μM)	Tryptase At 100 μM % [8]	IC50 ([5]; read-out: Cathepsin G IC50)
	CC[C@H](C)[C@@H]1NC(=O)[C@@H]2CCCN2C(=O)[C@@H]2CCCN2C(=O)[C@H](CC(=O)O)NC(=O)[C@H](CO)NC(=O)[C@H](CCCCN)NC(=O)[C@H]([C@@H](C)O)NC(=O)[C@@H]2CSSC[C@H](NC1=O)C(=O)N[C@@H](CC(=O)O)C(=O)N1CCC[C@@H]1C(=O)N1CCC[C@H]1C(=O)N[C@@H](Cc1ccccc1)C(=O)N2 [Ex. 2] (HELM PEPTIDE1{F.C.T.K.S.D.P.P.I.C.D.[dP].P}$PEPTIDE1,PEPTIDE1,2:R3-10:R3|PEPTIDE1,PEPTIDE1,1:R1-13:R2$$$V2.0)	2.9%	> 100000 nM	0.9%	9.2%	84 nM	92%	5.3%	39.6%	0%			
	CC[C@H](C)[C@@H]1NC(=O)[C@@H]2CCCN2C(=O)[C@@H]2CCCN2C(=O)[C@H](CC(=O)O)NC(=O)[C@H](CO)NC(=O)[C@H](CCCCN)NC(=O)[C@H]([C@@H](C)O)NC(=O)[C@@H]2CSSC[C@H](NC1=O)C(=O)N[C@@H](Cc1ccc(O)cc1)C(=O)N1CCC[C@@H]1C(=O)N1CCC[C@H]1C(=O)N[C@@H](Cc1ccc(O)cc1)C(=O)N2 [Ex. 26] (HELM PEPTIDE1{Y.C.T.K.S.D.P.P.I.C.Y.[dP].P}$PEPTIDE1,PEPTIDE1,2:R3-10:R3|PEPTIDE1,PEPTIDE1,1:R1-13:R2$$$V2.0)	2.2%	> 100000 nM	3.1%	3%	49 nM	84%	6%	66.4%	0%			
	CC[C@H](C)[C@@H]1NC(=O)[C@@H]2CCCN2C(=O)[C@@H]2CCCN2C(=O)[C@H](CC(=O)O)NC(=O)[C@H](CO)NC(=O)[C@H](CCCCN)NC(=O)[C@H]([C@@H](C)O)NC(=O)[C@@H]2CSSC[C@H](NC1=O)C(=O)N[C@@H]([C@@H](C)O)C(=O)N1CCC[C@@H]1C(=O)N1CCC[C@H]1C(=O)N[C@@H](CCc1ccccc1)C(=O)N2 [Ex. 28] (HELM PEPTIDE1{[O=C([C@H](CCc1ccccc1)N[*:1])[*:2]].C.T.K.S.D.P.P.I.C.T.[dP].P}$PEPTIDE1,PEPTIDE1,2:R3-10:R3|PEPTIDE1,PEPTIDE1,1:R1-13:R2$$$V2.0)	32%	> 100000 nM	1%	12%	39 nM	95%	6%	0%	0%			
	CC[C@H](C)[C@@H]1NC(=O)[C@@H]2CCCN2C(=O)[C@@H]2CCCN2C(=O)[C@H](CC(=O)O)NC(=O)[C@H](CO)NC(=O)[C@H](CCCCN)NC(=O)[C@H]([C@@H](C)O)NC(=O)[C@@H]2CSSC[C@H](NC1=O)C(=O)N[C@@H](CC(N)=O)C(=O)N1CCC[C@@H]1C(=O)N1CCC[C@H]1C(=O)N[C@@H](Cc1ccc(N)cc1)C(=O)N2 [Ex. 31] (HELM PEPTIDE1{[Nc1ccc(C[C@H](N[*:1])C(=O)[*:2])cc1].C.T.K.S.D.P.P.I.C.N.[dP].P}$PEPTIDE1,PEPTIDE1,2:R3-10:R3|PEPTIDE1,PEPTIDE1,1:R1-13:R2$$$V2.0)	15%	> 100000 nM	15%	10%	34 nM	98%	8%	76%	12%			
	CC[C@H](C)[C@@H]1NC(=O)[C@@H]2CCCN2C(=O)[C@@H]2CCCN2C(=O)[C@H](CC(=O)O)NC(=O)[C@H](CO)NC(=O)[C@H](CCCCN)NC(=O)[C@H]([C@@H](C)O)NC(=O)[C@@H]2CSSC[C@H](NC1=O)C(=O)N[C@@H](CO)C(=O)N[C@H](C)C(=O)N[C@@H](CC(=O)O)C(=O)N[C@@H](Cc1ccccc1)C(=O)N2 [Ex. 68] (HELM PEPTIDE1{F.C.T.K.S.D.P.P.I.C.S.[dA].D}$PEPTIDE1,PEPTIDE1,2:R3-10:R3|PEPTIDE1,PEPTIDE1,1:R1-13:R2$$$V2.0)	4.3%	> 100000 nM	4.6%	5.4%	59 nM	84.2%	8.6%	21.3%	0%			
53.5 at 100%	CCCC[C@@H]1NC(=O)[C@@H]2CCCN2C(=O)[C@H]2CCCN2C(=O)[C@H](Cc2ccc(O)cc2)NC(=O)[C@H](CCCCN)NC(=O)[C@H](CCC(N)=O)NC(=O)[C@@H]2CCCN2C(=O)[C@@H]2CCCN2C(=O)[C@H]([C@@H](C)CC)NC(=O)[C@H](CO)NC(=O)[C@H](C)NC(=O)[C@H]([C@@H](C)O)NC(=O)[C@H](CCC(=O)O)NC1=O [Ex. 104] (HELM PEPTIDE1{[Nle].E.T.A.S.I.P.P.Q.K.Y.[dP].P}$PEPTIDE1,PEPTIDE1,1:R1-13:R2$$$V2.0)	3.1 at 100 μM %	34 nM	0%	7.7%		0%	6.2%	0%	0%			
	CC[C@H](C)[C@@H]1NC(=O)[C@H](CO)NC(=O)[C@H](C)NC(=O)[C@H]([C@@H](C)O)NC(=O)[C@@H]2CSSC[C@H](NC(=O)[C@H](CCC(N)=O)NC(=O)[C@@H]3CCCN3C(=O)[C@@H]3CCCN3C1=O)C(=O)N[C@@H](CCC(N)=O)C(=O)N1CCC[C@@H]1C(=O)N1CCC[C@H]1C(=O)N[C@@H](CCc1ccccc1)C(=O)N2 [Ex. 143] (HELM PEPTIDE1{[O=C([C@H](CCc1ccccc1)N[*:1])[*:2]].C.T.A.S.I.P.P.Q.C.Q.[dP].P}$PEPTIDE1,PEPTIDE1,2:R3-10:R3|PEPTIDE1,PEPTIDE1,1:R1-13:R2$$$V2.0)	91%	15 nM	8%	12%		12%	0%		0%	28 at 100%	18%	
	CCCC[C@@H]1NC(=O)[C@@H]2CCCN2C(=O)[C@H]2CCCN2C(=O)[C@H](Cc2ccccc2Cl)NC(=O)[C@@H]2CSSC[C@H](NC1=O)C(=O)N[C@@H]([C@@H](C)O)C(=O)N[C@@H](C)C(=O)N[C@@H](CO)C(=O)N[C@@H]([C@@H](C)CC)C(=O)N1CCC[C@H]1C(=O)N1CCC[C@H]1C(=O)N[C@@H](CCC(N)=O)C(=O)N2 [Ex. 144] (HELM PEPTIDE1{[Nle].C.T.A.S.I.P.P.Q.C.[O=C([C@H](Cc1ccccc1Cl)N[*:1])[*:2]].[dP].P}$PEPTIDE1,PEPTIDE1,2:R3-10:R3|PEPTIDE1,PEPTIDE1,1:R1-13:R2$$$V2.0)	80.6%	7.5 nM	6.2%	3.6%		7.5%	0%		0%		0%	21200 nM
	CC[C@H](C)[C@@H]1NC(=O)[C@H](CO)NC(=O)[C@H](C)NC(=O)[C@H]([C@@H](C)O)NC(=O)[C@@H]2CSSC[C@H](NC(=O)[C@H](CCC(N)=O)NC(=O)[C@@H]3CCCN3C(=O)[C@@H]3CCCN3C1=O)C(=O)N[C@@H](Cc1ccccc1)C(=O)N1CCC[C@@H]1C(=O)N1CCC[C@H]1C(=O)N[C@@H](CCc1ccccc1)C(=O)N2 [Ex. 146] (HELM PEPTIDE1{[O=C([C@H](CCc1ccccc1)N[*:1])[*:2]].C.T.A.S.I.P.P.Q.C.F.[dP].P}$PEPTIDE1,PEPTIDE1,2:R3-10:R3|PEPTIDE1,PEPTIDE1,1:R1-13:R2$$$V2.0)	87%	12 nM	0%	11%		3%	1%		0%	1 at 100%	22%	
